Experimental data as given in ChEMBL document CHEMBL6121021, “Design and Synthesis of Topoisomerases-Histone Deacetylase Dual Targeted Quinoline-Bridged Hydroxamates as Anticancer Agents” (J Med Chem, 2025).
The source made the active and inactive calls. The rule behind the calls is not given here.

Assays:
Histone deacetylase 1 [1] = molecular target: T1, Histone deacetylase 1 (Homo sapiens, UniProt Q13547); test: Inhibition of HDAC1 (unknown origin)
[2] = molecular target: T2, Protein deacetylase HDAC6 (Homo sapiens, UniProt Q9UBN7); test: Inhibition of HDAC6 (unknown origin)
T2 sequence (Q9UBN7 whole entry): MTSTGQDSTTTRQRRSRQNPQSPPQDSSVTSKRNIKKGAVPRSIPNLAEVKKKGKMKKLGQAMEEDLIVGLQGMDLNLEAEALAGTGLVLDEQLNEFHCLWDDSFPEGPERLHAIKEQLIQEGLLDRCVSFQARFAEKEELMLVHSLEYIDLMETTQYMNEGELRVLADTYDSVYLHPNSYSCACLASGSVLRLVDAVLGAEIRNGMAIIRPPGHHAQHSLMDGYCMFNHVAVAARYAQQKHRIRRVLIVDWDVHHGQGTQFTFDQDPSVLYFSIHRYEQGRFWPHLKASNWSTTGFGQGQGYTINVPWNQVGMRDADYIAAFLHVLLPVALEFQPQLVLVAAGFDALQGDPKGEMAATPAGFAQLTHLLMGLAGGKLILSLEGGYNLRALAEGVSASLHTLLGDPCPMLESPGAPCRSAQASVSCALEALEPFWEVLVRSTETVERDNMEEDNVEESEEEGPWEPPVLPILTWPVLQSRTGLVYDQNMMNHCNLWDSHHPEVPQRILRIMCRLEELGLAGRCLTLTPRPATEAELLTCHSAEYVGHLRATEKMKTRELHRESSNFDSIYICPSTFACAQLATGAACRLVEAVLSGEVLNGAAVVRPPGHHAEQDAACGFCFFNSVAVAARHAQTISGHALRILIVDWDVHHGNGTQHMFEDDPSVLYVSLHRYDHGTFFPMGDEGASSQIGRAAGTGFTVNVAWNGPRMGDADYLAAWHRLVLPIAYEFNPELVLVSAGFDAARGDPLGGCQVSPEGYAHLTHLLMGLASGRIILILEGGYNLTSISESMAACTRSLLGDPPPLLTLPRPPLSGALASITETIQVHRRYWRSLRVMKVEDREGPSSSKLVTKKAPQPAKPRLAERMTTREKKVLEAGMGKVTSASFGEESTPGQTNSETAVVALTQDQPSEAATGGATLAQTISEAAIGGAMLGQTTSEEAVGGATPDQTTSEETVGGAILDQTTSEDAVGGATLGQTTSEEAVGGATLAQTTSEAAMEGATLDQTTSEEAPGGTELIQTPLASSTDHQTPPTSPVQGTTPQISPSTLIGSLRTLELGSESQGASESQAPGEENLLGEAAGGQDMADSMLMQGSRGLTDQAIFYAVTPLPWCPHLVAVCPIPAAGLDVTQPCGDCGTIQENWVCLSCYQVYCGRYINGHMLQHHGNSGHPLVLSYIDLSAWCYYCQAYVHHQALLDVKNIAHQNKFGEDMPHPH

Supercoiled DNA = test: Binding affinity to supercoiled DNA (unknown origin) assessed as DNA intercalation measured after 30 mins by gel electrophoresis; type: nucleic-acid assay
[3] = molecular target: T2, Protein deacetylase HDAC6; test: Inhibition of HDAC6 (unknown origin) using acetylated-peptide substrate by fluorometric assay
MCF7 = test: cells; type: functional, cell-based; conditions: Homo sapiens, MCF7, 48 h
MDA-MB-231 = test: cells; type: functional, cell-based; conditions: Homo sapiens, MDA-MB-231, 48 h
HT-29 = test: cells; type: functional, cell-based; conditions: Homo sapiens, HT-29, 48 h
Histone deacetylase 8 = molecular target: T3, Histone deacetylase 8 (Homo sapiens, UniProt Q9BY41); test: Inhibition of HDAC8 (unknown origin) by fluorometric assay
T3 sequence (Q9BY41 whole entry): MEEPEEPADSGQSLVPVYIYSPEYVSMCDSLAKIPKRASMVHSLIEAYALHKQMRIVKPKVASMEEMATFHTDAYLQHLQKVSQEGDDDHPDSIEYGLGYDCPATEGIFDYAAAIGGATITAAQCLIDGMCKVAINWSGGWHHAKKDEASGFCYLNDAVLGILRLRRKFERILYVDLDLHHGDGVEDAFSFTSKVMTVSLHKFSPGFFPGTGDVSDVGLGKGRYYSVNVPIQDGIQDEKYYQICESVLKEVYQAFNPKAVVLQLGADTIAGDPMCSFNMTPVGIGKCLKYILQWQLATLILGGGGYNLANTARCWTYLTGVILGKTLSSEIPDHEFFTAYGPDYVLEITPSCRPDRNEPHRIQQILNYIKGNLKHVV

A549 [4] = test: cells; conditions: Homo sapiens, A549, 48 h
[5] = molecular target: DNA topoisomerase 2-alpha (Homo sapiens, UniProt P11388); test: Inhibition of human Topo II-alpha-mediated decatenation of kDNA at 100 uM incubated for 30 mins
Histone deacetylase 1 [6] = molecular target: T1, Histone deacetylase 1; test: Inhibition of HDAC1 extracted from human A549 nucleus incubated for 1 hr by fluorometric assay; type: cell-free
NCI-H1299 = test: cells; type: functional, cell-based; conditions: Homo sapiens, NCI-H1299, 48 h
A549 [7] = test: Induction of ROS generation in human A549 cells incubated for 48 hrs by DCFH-DA staining based analysis; type: functional, cell-based
A549 [8] = test: Induction of apoptosis in human A549 cells by Annexin-V/PI staining based flow cytometry; type: functional, cell-based
A549 [9] = test: Anti-cancer activity against human A549 3D cell culture model at sub- IC50 incubated for 17 days with replacement of medium containing compound on every third day; type: functional, cell-based; conditions: time 17.0 day
A549 [10] = test: Effect on mitochondrial membrane permeability in human A549 cells assessed as decrease in red to green fluorescence ratio at sub-IC50 incubated for 48 hrs by JC-1 staining based analysis; type: functional, cell-based
A549 [11] = test: Anti-cancer activity against human A549 3D cell culture model assessed as inhibition of 3D culture initiation at sub- IC50 incubated for 21 days with replacement of medium containing compound on every seventh day; type: functional, cell-based; conditions: time 21.0 day
A549 [12] = test: Induction of cell cycle arrest in human A549 cells assessed as accumulation at G2/M phase by PI staining based flow cytometry; type: functional
A549 [13] = test: Induction of ROS generation in human A549 cells incubated for 48 hrs by Cell Rox red staining based flow cytometry; type: functional
[14] = molecular target: T4, DNA topoisomerase 1 (Homo sapiens) (UniProt P11387); test: Inhibition of human Topo I-mediated relaxation of supercoiled DNA preincubated for 30 mins followed by proteinase K addition measured after 30 mins by gel electrophoresis; conditions: time 60.0 min
T4 sequence (whole entry): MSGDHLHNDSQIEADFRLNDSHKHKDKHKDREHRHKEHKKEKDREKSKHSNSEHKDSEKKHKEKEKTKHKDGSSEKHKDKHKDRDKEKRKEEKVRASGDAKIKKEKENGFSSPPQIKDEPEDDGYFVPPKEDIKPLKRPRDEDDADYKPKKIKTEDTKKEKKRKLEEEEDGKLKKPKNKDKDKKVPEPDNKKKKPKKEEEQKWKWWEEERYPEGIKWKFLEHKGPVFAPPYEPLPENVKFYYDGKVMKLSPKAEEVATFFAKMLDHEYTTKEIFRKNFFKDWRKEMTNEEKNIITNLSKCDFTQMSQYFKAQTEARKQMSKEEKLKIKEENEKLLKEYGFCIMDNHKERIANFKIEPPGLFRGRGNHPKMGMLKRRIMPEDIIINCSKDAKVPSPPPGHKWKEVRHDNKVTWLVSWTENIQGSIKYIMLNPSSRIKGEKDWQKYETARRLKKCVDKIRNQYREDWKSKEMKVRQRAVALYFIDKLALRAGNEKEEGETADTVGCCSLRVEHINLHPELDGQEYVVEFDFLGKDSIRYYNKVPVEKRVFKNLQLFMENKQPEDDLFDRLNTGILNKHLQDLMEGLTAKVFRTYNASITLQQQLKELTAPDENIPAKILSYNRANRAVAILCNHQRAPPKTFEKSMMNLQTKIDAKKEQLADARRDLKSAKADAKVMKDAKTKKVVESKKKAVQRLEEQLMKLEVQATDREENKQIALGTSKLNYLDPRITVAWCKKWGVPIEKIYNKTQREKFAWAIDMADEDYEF

A549 [15] = test: Induction of cell cycle arrest in human A549 cells assessed as accumulation at G1 phase by PI staining based flow cytometry; type: functional
[16] = Antiproliferative activity against human NCI-H1975 cells harboring EGFR T790M mutant incubated for 48 hrs by MTT assay; type: functional, cell-based; conditions: NCI-H1975, 48 h
[17] = Toxicity in athymic nude Crl:NU-Foxn1nu mouse xenografted with human A549 cells assessed as animal survival at 30 mg/kg, po administered twice a week for 1 month; type: organism-based; conditions: in vivo, 730 h, time 1 months

Sequence of DNA topoisomerase 2-alpha (P11388 whole entry): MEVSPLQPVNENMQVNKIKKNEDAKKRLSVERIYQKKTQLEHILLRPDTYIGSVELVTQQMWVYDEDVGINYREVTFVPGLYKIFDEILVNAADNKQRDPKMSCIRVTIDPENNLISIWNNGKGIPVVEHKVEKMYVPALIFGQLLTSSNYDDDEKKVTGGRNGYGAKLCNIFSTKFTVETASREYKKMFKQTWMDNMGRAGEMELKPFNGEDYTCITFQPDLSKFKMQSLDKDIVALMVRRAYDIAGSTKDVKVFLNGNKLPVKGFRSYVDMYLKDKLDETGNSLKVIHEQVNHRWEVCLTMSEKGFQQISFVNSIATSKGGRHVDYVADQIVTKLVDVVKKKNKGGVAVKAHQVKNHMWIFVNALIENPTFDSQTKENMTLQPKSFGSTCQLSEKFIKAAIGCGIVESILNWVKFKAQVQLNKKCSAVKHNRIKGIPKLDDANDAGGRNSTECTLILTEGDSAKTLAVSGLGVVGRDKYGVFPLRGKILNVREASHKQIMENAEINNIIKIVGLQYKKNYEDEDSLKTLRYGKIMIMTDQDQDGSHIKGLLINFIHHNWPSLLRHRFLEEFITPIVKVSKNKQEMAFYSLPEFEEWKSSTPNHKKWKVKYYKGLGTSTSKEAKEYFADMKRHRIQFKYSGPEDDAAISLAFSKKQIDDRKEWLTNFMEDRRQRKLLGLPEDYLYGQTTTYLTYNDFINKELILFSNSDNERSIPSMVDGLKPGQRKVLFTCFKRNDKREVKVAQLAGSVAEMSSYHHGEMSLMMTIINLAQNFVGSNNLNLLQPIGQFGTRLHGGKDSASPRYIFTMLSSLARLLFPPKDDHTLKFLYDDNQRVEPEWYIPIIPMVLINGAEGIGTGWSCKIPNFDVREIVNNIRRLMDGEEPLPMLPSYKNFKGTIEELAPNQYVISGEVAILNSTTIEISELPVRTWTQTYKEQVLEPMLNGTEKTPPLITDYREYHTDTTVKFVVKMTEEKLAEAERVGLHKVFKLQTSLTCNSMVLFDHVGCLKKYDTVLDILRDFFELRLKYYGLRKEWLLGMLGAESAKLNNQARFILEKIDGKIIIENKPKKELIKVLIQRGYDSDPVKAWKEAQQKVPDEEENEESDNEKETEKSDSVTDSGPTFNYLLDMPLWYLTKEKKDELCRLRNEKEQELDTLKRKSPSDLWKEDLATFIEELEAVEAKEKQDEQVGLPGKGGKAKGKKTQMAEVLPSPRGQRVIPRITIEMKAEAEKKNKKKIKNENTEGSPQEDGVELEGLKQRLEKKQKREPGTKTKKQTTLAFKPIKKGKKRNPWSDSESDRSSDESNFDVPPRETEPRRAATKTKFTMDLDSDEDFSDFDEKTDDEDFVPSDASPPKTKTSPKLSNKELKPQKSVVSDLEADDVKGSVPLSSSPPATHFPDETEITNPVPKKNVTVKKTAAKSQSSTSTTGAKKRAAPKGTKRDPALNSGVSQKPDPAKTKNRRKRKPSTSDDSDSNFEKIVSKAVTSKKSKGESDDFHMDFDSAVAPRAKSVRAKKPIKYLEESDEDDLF
T1 sequence (Q13547 whole entry): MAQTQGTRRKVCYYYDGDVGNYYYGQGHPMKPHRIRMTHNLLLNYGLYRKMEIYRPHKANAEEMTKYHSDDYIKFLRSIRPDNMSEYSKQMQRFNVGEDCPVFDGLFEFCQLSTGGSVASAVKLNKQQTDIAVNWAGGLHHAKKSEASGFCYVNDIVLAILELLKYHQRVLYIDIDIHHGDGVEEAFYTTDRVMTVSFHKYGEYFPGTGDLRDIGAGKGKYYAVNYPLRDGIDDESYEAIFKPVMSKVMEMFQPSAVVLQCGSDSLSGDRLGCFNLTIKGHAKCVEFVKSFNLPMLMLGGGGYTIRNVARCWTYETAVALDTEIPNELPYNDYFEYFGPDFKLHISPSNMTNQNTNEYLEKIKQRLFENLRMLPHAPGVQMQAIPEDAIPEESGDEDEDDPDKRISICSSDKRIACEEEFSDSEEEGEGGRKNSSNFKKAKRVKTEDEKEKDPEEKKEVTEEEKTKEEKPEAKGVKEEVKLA

Row | Compound | IC50 (Histone deacetylase 1 [1]) [µM] | IC50 [2] [µM] | Activity (Supercoiled DNA) | IC50 [3] [µM] | IC50 (MCF7) [µM] | IC50 (MDA-MB-231) [µM] | IC50 (HT-29) [µM] | IC50 (Histone deacetylase 8) [µM] | IC50 (A549 [4]) [µM] | inhibition [5] | IC50 (Histone deacetylase 1 [6]) [µM] | IC50 (NCI-H1299) [µM] | other results
1 | O=C(CCCCCn1cc(-c2ccc(Nc3c4ccccc4nc4ccccc34)cc2)nn1)NO | 0.0039 | 0.0029 | – | – | – | – | – | – | – | – | – | – | –
2 | COc1cc(-c2ccc3cc(OCCCCCC(=O)NO)ccc3n2)cc(OC)c1OC | – | – | inactive | > 0.5 | 5.22 | 6.24 | 1.9 | > 0.5 | 1.85 | Active | 0.0441 | 3.23 | –
3 | CN1c2ccc(NCc3ccc(-c4noc(CC(=O)NO)n4)cc3)cc2C(O)N2CCc3c([nH]c4ccc(O)cc34)C12 (stereo unspecified) | 0.024 | 0.013 | – | – | – | – | – | – | – | – | – | – | –
4 | COc1cc(-c2ccc3cc(OCCCCCCC(=O)NO)ccc3n2)cc(OC)c1OC | – | – | inactive | 0.243 | 4.66 | 5.87 | 4.97 | > 0.5 | 3.75 | Active | 0.0698 | 4.81 | –
5 | CC[C@@]1(O)C(=O)OCc2c1cc1n(c2=O)Cc2c-1nc1ccccc1c2/C=N\OCCCCCCC(=O)NO | 0.00526 | 0.00522 | – | – | – | – | – | – | – | – | – | – | –
6 | O=C(CCCCCCOc1ccc2nc(-c3ccccc3)ccc2c1)NO | – | – | inactive | > 0.5 | 9.38 | 8.93 | 8.34 | > 0.5 | 3.95 | Active; Observed As More Active Than Etoposide | 0.0474 | 4.25 | –
7 | COc1ccc(-c2ccc3cc(OCCCCCCC(=O)NO)ccc3n2)cc1 | – | – | inactive | > 0.5 | 1.44 | 0.978 | 3.91 | > 0.5 | 1.6 | Active; Observed As More Active Than Etoposide | 0.028 | 2.33 | Activity (A549 [7]): Active; Activity (A549 [8]): Active; Activity (A549 [9]): Active; Exhibited Commendable Decrease In Mass Of 3D Sphere; Activity (A549 [10]): Active; Result Signifies That Cell Death Induced Via Mitochondrial-Dependent Pathways; inhibition (A549 [11]): Active; Activity (A549 [12]): Active; Activity (A549 [13]): Active; inhibition [14]: Active; Activity (A549 [15]): Active
8 | COc1ccc(-c2ccc3ccc(OCCCCCC(=O)NO)cc3n2)cc1I | – | – | inactive | 0.0478 | 2.87 | 1.49 | 2.86 | > 0.5 | 1.77 | Active; Observed As More Active Than Etoposide | 0.0335 | 1.98 | Activity (A549 [7]): Active; Activity (A549 [8]): Active; Activity (A549 [9]): Active; Exhibited Potent Effect; Activity (A549 [10]): Not active; Result Signifies That Cell Death Induced Via Mitochondrial-Independent Pathways; inhibition (A549 [11]): Active; Activity (A549 [12]): Active; Activity (A549 [13]): Active; inhibition [14]: Active; Activity (A549 [15]): Active
9 | O=C(CCCCCCOc1ccc(-c2ccc3ccccc3n2)cc1)NO | – | – | inactive | 0.276 | 4.82 | 3.81 | 3.45 | > 0.5 | 0.853 | Active; Observed As More Active Than Etoposide | 0.0665 | 2.46 | –
10 | COc1cc([C@@H]2c3cc4c(cc3[C@@H](O[C@@H]3O[C@@H]5CO[C@@H](C)O[C@H]5[C@H](O)[C@H]3O)[C@H]3COC(=O)[C@H]23)OCO4)cc(OC)c1O [ETOPOSIDE] | – | – | – | – | – | – | – | – | – | – | – | – | IC50 [16]: 1.63 µM; Activity [17]: Non-toxic
